Experimental findings from patent publication US12492199B2, “Pyridopyrimidines as histamine H4-receptor inhibitors” (FAES FARMA, S.A., priority 2018, dated 2025) are described below.

Where two headings read alike, the source gives them in different places.

In general, Ki refers to a measure of affinity in units of concentration, obtained from inhibition or displacement. Usually IC50 stands for the concentration needed to halve the response being measured. Read a high IC50 as weaker potency in that assay. The term inhibition denotes how much of the control response was suppressed. The low end stands for little suppression, the high end for strong suppression.

One assay deals with human H4 receptor (Homo sapiens (Human), UniProt Q9H3N8). The experiment in a line: H4 Binding assay ([3H]histamine competition, membranes from CHO-K1 cells transfected with human H4 receptor). The procedure: Affinity for histamine H4-receptor was determined by H4 Binding assay:
• Membranes from CHO-K1 cells transfected with human H4 receptor and microplates of 96-well format were used. • For competition studies cell membranes were homogenated in Tris-HCl 50 mM, EDTA 5 mM, pH 7.4 and added to the microplate at the concentration of approximately 15 μg/well. […] Non specific binding was defined using 10 μM unlabeled histamine and the total incubation volume was 275 μl per well. • Incubations were performed under gentle agitation at 25° C. for 60 min and concluding with a rapid vacuum filtration using pre-soaked filters (0.5% polyethylenimine). After ten rapid washes with cold wash buffer (50 mM Tris-HCl buffer) the filter plates were dried at room temperature for 30 min. • Finally, scintillation liquid (Microscint 20) was added to the whole microplate in order to measure the radioactivity reattained on the filters using a specific scintillation counter (Top Count—NXT). […] H1 Binding Assay Materials

The next assay deals with human H1 receptor (Homo sapiens (Human), UniProt P35367). The experiment in a line: H1 Binding assay ([3H]pyrilamine competition, membranes from CHO-K1 cells transfected with human H1 receptor). To be noted: affinity for human histamine H1 receptor, class symbols; — not defined in key; read-out: ACTIVITY CLASS hH1R (Ki). The procedure: Cetirizine and pyrilamine were supplied by Sigma-Aldrich. Bilastine was synthetized at FAES FARMA facilities (Lamiako-Leioa, Spain), chemical reagents such as Na2HPO4, KH2PO4 or polyvinylpyrrolidone as well as multiscreen microplates (MSFBN6B50) were purchased from Merck Millipore, scintillation liquid (Microscint 20), human H1 membranes (ES-390-M400UA) and ^3H-pirilamina (NET 594) were provided by PerkinElmer.
Affinity for histamine H1-receptor was determined by H1 Binding assay: • Membranes form CHO-K1 cells transfected with human H1 receptor and microplates of 96-well format were used. • For competition studies cell membranes were homogenated in 50 mM phosphate buffer (Na2HPO4 and KH2PO4 mixed to pH 7.4 at 25° C.) and added to the microplate at the concentration of approximately 5 μg/well. […] Non specific binding was defined using 10 μM unlabeled pyrilamine and the total incubation volume was 275 μl per well. • Incubations were performed until gentle agitation at 25° C. for 60 min and concluding with a rapid vacuum filtration using pre-soaked filters (5% polyvinylpyrrolidone). After ten rapid washes with cold wash buffer (50 mM phosphate buffer) the filter plates were dried at room temperature for 30 min. • Finally, scintillation liquid (Microscint 20) was added to the whole microplate in order to measure the radioactivity retained on the filters using an specific scintillation counter (Top Count—NXT). Curve analysis and values of IC50 were determined using Grap Pad Prism program (GraphPad Software, San Diego, USA). • Test compounds were initially evaluated at one concentration (1 μM) and thereafter if significant displacement was observed (>40%) a concentration-response curve was conducted. Each test concentration was measured in triplicate. • As reference compounds pyrilamine, cetirizine and Bilastine were used.

[1] abbreviates: affinity for human histamine H4 receptor, class symbols, read-out: ACTIVITY CLASS hH4R (Ki).

human H1 receptor, sequence (P35367 whole entry): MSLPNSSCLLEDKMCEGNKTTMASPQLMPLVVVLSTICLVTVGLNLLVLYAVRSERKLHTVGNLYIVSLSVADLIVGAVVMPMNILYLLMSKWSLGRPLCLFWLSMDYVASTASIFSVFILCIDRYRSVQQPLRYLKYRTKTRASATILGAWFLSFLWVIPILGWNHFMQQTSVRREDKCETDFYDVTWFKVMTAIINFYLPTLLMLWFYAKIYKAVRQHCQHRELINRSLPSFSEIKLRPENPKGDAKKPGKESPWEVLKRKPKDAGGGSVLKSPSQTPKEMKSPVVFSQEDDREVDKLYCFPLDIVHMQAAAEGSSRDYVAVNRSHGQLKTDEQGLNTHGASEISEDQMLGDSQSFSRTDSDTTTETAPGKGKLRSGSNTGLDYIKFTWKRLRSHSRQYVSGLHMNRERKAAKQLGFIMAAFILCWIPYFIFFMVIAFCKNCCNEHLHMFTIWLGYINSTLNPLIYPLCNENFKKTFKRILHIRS
human H4 receptor, sequence (Q9H3N8 whole entry): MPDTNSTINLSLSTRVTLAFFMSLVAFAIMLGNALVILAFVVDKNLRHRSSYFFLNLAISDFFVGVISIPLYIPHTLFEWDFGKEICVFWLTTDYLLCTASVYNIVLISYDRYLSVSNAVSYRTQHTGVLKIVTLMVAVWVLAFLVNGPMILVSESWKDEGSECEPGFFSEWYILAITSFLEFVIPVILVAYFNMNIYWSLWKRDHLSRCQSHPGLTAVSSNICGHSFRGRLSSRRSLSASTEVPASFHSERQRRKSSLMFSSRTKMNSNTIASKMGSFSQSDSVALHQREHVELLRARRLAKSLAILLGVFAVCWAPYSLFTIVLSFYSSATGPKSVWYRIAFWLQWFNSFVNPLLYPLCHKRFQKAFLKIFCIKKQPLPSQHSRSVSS

Turning to `CN1CCN(c2nc(NCc3cccs3)c3cc(Cl)ncc3n2)CC1` [Example 3, 6-chloro-2-(4-methylpiperazin-1-yl)-N-(thiophen-2-ylmethyl)pyrido[3,4-d]pyrimidin-4-amine], the inhibitory constant (Ki) on human H4 receptor (setting [1]) was less than 100 nM; on human H4 receptor (histamine H4 receptor, comparative compounds, read-out: Ki) it was 0.75 nM; at human H1 receptor, less than 1000 nM. At human H4 receptor (histamine H4 receptor binding), this compound displayed an IC50 of 1.74 nM. Further, on human H4 receptor (histamine H4 receptor binding, compounds initially evaluated at 1 μM), the inhibition at 1 µM was 94%. For `CN1CCN(c2nc(NCc3ccco3)c3cc(Cl)ncc3n2)CC1` [Example 4, 6-chloro-N-(furan-2-ylmethyl)-2-(4-methylpiperazin-1-yl)pyrido[3,4-d]pyrimidin-4-amine], the inhibition constant (Ki) was less than 100 nM on human H4 receptor (setting [1]) and less than 1000 nM at human H1 receptor. The matching figures for `CN1CCN(c2nc(NCc3ccsc3)c3cc(Cl)ncc3n2)CC1` [Example 5, 6-chloro-2-(4-methylpiperazin-1-yl)-N-(thiophen-3-ylmethyl)pyrido[3,4-d]pyrimidin-4-amine]: less than 1000 nM and less than 1000 nM.

Turning to `CN1CCN(c2nc(NCCS(=O)(=O)N(C)c3ccccc3)c3cc(Cl)ncc3n2)CC1` [Example 17, 2-((6-chloro-2-(4-methylpiperazin-1-yl)pyrido[3,4-d]pyrimidin-4-yl)amino)-N-methyl-N-phenylethane-1-sulfonamide], the Ki at human H4 receptor (setting [1]) is less than 100 nM; at human H1 receptor, less than 1000 nM. The like results for `Clc1cc2c(NCc3cccs3)nc(N3CCNCC3)nc2cn1` [Example 24, 6-chloro-2-(piperazin-1-yl)-N-(thiophen-2-ylmethyl)pyrido[3,4-d]pyrimidin-4-amine] were, in that order, less than 100 nM and less than 1000 nM.

Consider `Clc1cc2c(NCc3ccco3)nc(N3CCNCC3)nc2cn1` [Example 25, 6-chloro-N-(furan-2-ylmethyl)-2-(piperazin-1-yl)pyrido[3,4-d]pyrimidin-4-amine], for which the inhibitory constant (Ki) on human H4 receptor (setting [1]) and at human H1 receptor was less than 1000 nM each time. For the compound `CCCc1cc2c(NCc3cccs3)nc(N3CCN(C)CC3)nc2cn1` [Example 49, 2-(4-methylpiperazin-1-yl)-6-propyl-N-(thiophen-2-ylmethyl)pyrido[3,4-d]pyrimidin-4-amine], the Ki at human H4 receptor (setting [1]) and on human H1 receptor was less than 1000 nM in each case. Turning to `CC(C)c1cc2c(NCCS(=O)(=O)Nc3ccccc3)nc(N3CCN(C)CC3)nc2cn1` [Example 54, 2-((6-isopropyl-2-(4-methylpiperazin-1-yl)pyrido[3,4-d]pyrimidin-4-yl)amino)-N-phenylethane-1-sulfonamide], the figures for the Ki on human H4 receptor (setting [1]) and at human H1 receptor were less than 100 nM and less than 1000 nM, respectively. For the compound `Cc1cc2c(NCc3cccs3)nc(N3CCNCC3)nc2cn1` [Example 60, 6-methyl-2-(piperazin-1-yl)-N-(thiophen-2-ylmethyl)pyrido[3,4-d]pyrimidin-4-amine], the Ki at human H4 receptor (setting [1]) and on human H1 receptor was less than 1000 nM throughout. As to `Cc1ccsc1CNc1nc(N2CCN(C)CC2)nc2cnc(Cl)cc12` [Example 68, 6-chloro-2-(4-methylpiperazin-1-yl)-N-((3-methylthiophen-2-yl)methyl)pyrido[3,4-d]pyrimidin-4-amine], the inhibition constant (Ki) on human H4 receptor (setting [1]) and on human H1 receptor was less than 1000 nM in each case. For the compound `Cc1ccc(CNc2nc(N3CCN(C)CC3)nc3cnc(Cl)cc23)s1` [Example 69, 6-chloro-2-(4-methylpiperazin-1-yl)-N-((5-methylthiophen-2-yl)methyl)pyrido[3,4-d]pyrimidin-4-amine], the inhibitory constant (Ki) at human H4 receptor (setting [1]) and on human H1 receptor was less than 1000 nM in each case.

As to `CN1CCN(c2nc(NCCS(=O)(=O)Nc3ccccc3Cl)c3cc(Cl)ncc3n2)CC1` [Example 72, 2-((6-chloro-2-(4-methylpiperazin-1-yl)pyrido[3,4-d]pyrimidin-4-yl)amino)-N-(2-chlorophenyl)ethane-1-sulfonamide], the Ki is less than 100 nM at human H4 receptor (setting [1]) and less than 1000 nM at human H1 receptor. The like results for `COc1ccccc1NS(=O)(=O)CCNc1nc(N2CCN(C)CC2)nc2cnc(Cl)cc12` [Example 74, 2-((6-chloro-2-(4-methylpiperazin-1-yl)pyrido[3,4-d]pyrimidin-4-yl)amino)-N-(2-methoxyphenyl)ethane-1-sulfonamide] were, in that order, less than 100 nM and less than 1000 nM.

Regarding `CN1CCN(c2nc(NCCS(=O)(=O)Nc3cccc(C(F)(F)F)c3)c3cc(Cl)ncc3n2)CC1` [Example 78, 2-((6-chloro-2-(4-methylpiperazin-1-yl)pyrido[3,4-d]pyrimidin-4-yl)amino)-N-(3-(trifluoromethyl)phenyl)ethane-1-sulfonamide], the inhibition constant (Ki) at human H4 receptor (setting [1]) is less than 100 nM.

Take `Cc1cccc(NS(=O)(=O)CCNc2nc(N3CCN(C)CC3)nc3cnc(Cl)cc23)c1` [Example 79, 2-((6-chloro-2-(4-methylpiperazin-1-yl)pyrido[3,4-d]pyrimidin-4-yl)amino)-N-(m-tolyl)ethane-1-sulfonamide]: on human H4 receptor (setting [1]), the Ki was less than 100 nM. Same read-out and setting: with `COc1cccc(NS(=O)(=O)CCNc2nc(N3CCN(C)CC3)nc3cnc(Cl)cc23)c1` [Example 80, 2-((6-chloro-2-(4-methylpiperazin-1-yl)pyrido[3,4-d]pyrimidin-4-yl)amino)-N-(3-methoxyphenyl)ethane-1-sulfonamide] the figure was less than 100 nM.

As to `CSc1cccc(NS(=O)(=O)CCNc2nc(N3CCN(C)CC3)nc3cnc(Cl)cc23)c1` [Example 81, 2-((6-chloro-2-(4-methylpiperazin-1-yl)pyrido[3,4-d]pyrimidin-4-yl)amino)-N-(3-(methylthio)phenyl)ethane-1-sulfonamide], at human H4 receptor (setting [1]), the inhibitory constant (Ki) was less than 100 nM. With `CN1CCN(c2nc(NCCS(=O)(=O)Nc3ccc(Cl)cc3)c3cc(Cl)ncc3n2)CC1` [Example 82, 2-((6-chloro-2-(4-methylpiperazin-1-yl)pyrido[3,4-d]pyrimidin-4-yl)amino)-N-(4-chlorophenyl)ethane-1-sulfonamide], on human H4 receptor (setting [1]), the Ki was less than 100 nM. Same read-out and setting: the result for `CN1CCN(c2nc(NCCS(=O)(=O)Nc3ccc(C(F)(F)F)cc3)c3cc(Cl)ncc3n2)CC1` [Example 83, 2-((6-chloro-2-(4-methylpiperazin-1-yl)pyrido[3,4-d]pyrimidin-4-yl)amino)-N-(4-(trifluoromethyl)phenyl)ethane-1-sulfonamide] reads less than 1000 nM. As for `Cc1ccc(NS(=O)(=O)CCNc2nc(N3CCN(C)CC3)nc3cnc(Cl)cc23)cc1` [Example 84, 2-((6-chloro-2-(4-methylpiperazin-1-yl)pyrido[3,4-d]pyrimidin-4-yl)amino)-N-(p-tolyl)ethane-1-sulfonamide], at human H4 receptor (setting [1]), the inhibitory constant (Ki) is less than 100 nM. The same measure, in the same setting: the result for `CN1CCN(c2nc(NCCS(=O)(=O)Nc3cccnc3)c3cc(Cl)ncc3n2)CC1` [Example 86, 2-((6-chloro-2-(4-methylpiperazin-1-yl)pyrido[3,4-d]pyrimidin-4-yl)amino)-N-(pyridin-3-yl)ethane-1-sulfonamide] reads less than 100 nM; that for `CN1CCN(c2nc(NCCS(=O)(=O)Nc3cccc(Cl)n3)c3cc(Cl)ncc3n2)CC1` [Example 87, 2-((6-chloro-2-(4-methylpiperazin-1-yl)pyrido[3,4-d]pyrimidin-4-yl)amino)-N-(6-chloropyridin-2-yl)ethane-1-sulfonamide], less than 1000 nM; that for `CN1CCN(c2nc(NCCS(=O)(=O)NCc3ccccn3)c3cc(Cl)ncc3n2)CC1` [Example 88, 2-((6-chloro-2-(4-methylpiperazin-1-yl)pyrido[3,4-d]pyrimidin-4-yl)amino)-N-(pyridin-2-ylmethyl)ethane-1-sulfonamide], less than 100 nM.

`Cc1cc(NS(=O)(=O)CCNc2nc(N3CCN(C)CC3)nc3cnc(Cl)cc23)n(C)n1` [Example 90, 2-((6-chloro-2-(4-methylpiperazin-1-yl)pyrido[3,4-d]pyrimidin-4-yl)amino)-N-(1,3-dimethyl-1H-pyrazol-5-yl)ethane-1-sulfonamide]: the inhibition constant (Ki) at human H4 receptor (setting [1]) was less than 1000 nM. As for `CN1CCN(c2nc(NCCS(=O)(=O)c3ccccc3)c3cc(Cl)ncc3n2)CC1` [Example 93, 6-chloro-2-(4-methylpiperazin-1-yl)-N-(2-(phenylsulfonyl)ethyl)pyrido[3,4-d]pyrimidin-4-amine], the values for the Ki on human H4 receptor (setting [1]) and on human H1 receptor were less than 100 nM and less than 1000 nM, respectively. With `CNC(=O)CCNc1nc(N2CCN(C)CC2)nc2cnc(Cl)cc12` [Example 98, 3-((6-chloro-2-(4-methylpiperazin-1-yl)pyrido[3,4-d]pyrimidin-4-yl)amino)-N-methylpropanamide], the Ki at human H4 receptor (setting [1]) is less than 1000 nM.
